For this test, the target named is T1, recombinant, N-terminally GST-tagged ATAD2 bromodomain amino acids 981-1108 (Homo sapiens, UniProt Q6PL18).
T1 construct: ATAD2 bromodomain amino acids 981-1108; made in house; host or cells: E. coli
T1 sequence (Q6PL18 981-1108): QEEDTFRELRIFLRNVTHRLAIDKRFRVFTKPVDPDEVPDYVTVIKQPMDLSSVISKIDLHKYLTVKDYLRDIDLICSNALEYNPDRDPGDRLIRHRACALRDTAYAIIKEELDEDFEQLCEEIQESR
Description: TR-FRET assay: disruption of the interaction between ATAD2 and acetylated Histone H4 (Ac-H4) peptide. The format is binding. Particulars: inhibition of ATAD2/Ac-H4 complex formation; 10 nM ATAD2, 50 nM Ac-H4 peptide. An excerpt:
The ability of the compounds described in the present invention to disrupt the interaction between ATAD2 and acetylated Histone H4 (Ac-H4) was used as quantitative measure of their ATAD2-binding affinities.
To this end a TR-FRET assay which detects the binding of an Ac-H4-derived synthetic peptide (purchased from e.g. Biosyntan (Berlin, Germany)) of sequence HSGRGKGGGGKGLGK(Ac)GGAKRHRK-Biotin to recombinant, N-terminally GST-tagged ATAD2 bromodomain amino acids 981-1108. The protein was produced in-house via E. coli expression followed by GSH-Sepharose affinity- and Superdex S200-size exclusion chromatography purification.
Typically, 11 different concentrations of each compound (0.1 nM, 0.33 nM, 1.1 nM, 3.8 nM, 13 nM, 44 nM, 0.15 μM, 0.51 μM, 1.7 μM, 5.9 μM and 20 μM) were tested in duplicate within the same microtiter plate. To this end, 100-fold concentrated compound solutions (in DMSO) were previously prepared with a Precision Pippeting System (BioTek) by serial dilution (1:3.4) of 2 mM stocks in clear, low-volume 384-well microtiter source plates (Greiner Bio-One). Subsequently, 50 nl of compounds were transferred into black, low-volume test plates from the same supplier using a Hummingbird capillary based liquid handling instrument (Digilab). Tests were started by the addition of 2 μl of 2.5-fold concentrated ATAD2 solution (25 nM=10 nM final concentration in the 5 μl assay volume) in aqueous assay buffer [50 mM HEPES pH 7.5, 50 mM potassium fluoride (KF), 100 mM sodium chloride (NaCl), 0.25 mM CHAPS, 0.05% bovine serum albumine (BSA) and 1 mM dithiothreitol (DTT)] to the compounds in the test plate with a Multidrop dispenser (Thermo-Fisher). Test plates were then incubated 10′ at 22° C., in order to allow pre-equilibration of putative compound-ATAD2 complexes. Subsequently, 3 μl of a 1.67-fold concentrated solution containing Ac-H4 peptide (83.5 nM=50 nM final concentration) and TR-FRET detection reagents [16.7 nM Anti-GST-XL665 (Cisbio), =10 nM final concentration and 4.17 nM Lance EU W-1024 Streptavidin Europium Chelate (Perkin-Elmer)=2.5 nM final concentration were dispensed into the plates.
The mixture was further incubated in the dark for 1 hour at 22° C. Finally the inhibition of the formation of ATAD2/Ac-H4 complexes was assessed by measurement of the resonance energy transfer from the Streptavidin-Eu-Chelate to the anti-GST-XL665 antibody present in the reaction. To this end, the fluorescence emissions at 622 nm and 665 nm after excitation at 337 nm were measured in a TR-FRET reader, e.g. a Rubystar or Pherastar (both from BMG Lab Technologies) or a Viewlux (Perkin-Elmer) and the ratio of the emissions at 665 nm and at 622 nm was taken as indicator for the amount of ATAD2/Ac-H4 complexes in equilibrium.
The data were normalized using two sets of control wells (16 each). The first accounted for 100% ATAD2/Ac-H4 binding (0% inhibition), and contained all reaction components but DMSO instead of inhibitors. The second represented 0% ATAD2/Ac-H4 binding (100% inhibition), and included all assay components except ATAD2. IC50 values were calculated by fitting the normalized inhibition data to a 4-parameter logistic equation using either Screener software (Genedata) or a Bayer-proprietary analysis software.
As usually defined, the IC50 is the concentration that inhibits the measured activity by half. Turning to `COC(=O)[C@@H](Cc1ccc(C#N)cc1)NC(=O)c1cc(-c2ccc(CN[C@H](C)c3ccc(C)cc3)o2)ccc1Cl` [Example 15, methyl N-{2-chloro-5-[5-({[(1R)-1-(4-methylphenyl)ethyl]amino}methyl)-2-furyl]benzoyl}-4-cyano-D-phenylalaninate], the concentration for half-maximal inhibition (IC50) was 812 nM.
As for `Cc1ccc([C@@H](C)NCc2ccc(-c3ccc(Cl)c(C(=O)N[C@@H](CN[C@H]4CCCN(C)C4)Cc4ccc(C#N)cc4)c3)o2)cc1` [Example 65], the IC50 stood at 121 nM.
On to `Cc1ccc([C@@H](C)NCc2ccc(-c3ccc(Cl)c(C(=O)N[C@@H](CC(=O)NC(C)C)Cc4ccc(C#N)cc4)c3)o2)cc1` [Example 6, 2-chloro-N-[(2R)-1-(4-cyanophenyl)-4-(isopropylamino)-4-oxobutan-2-yl]-5-[5-({[(1R)-1-(4-methylphenyl)ethyl]amino}methyl)-2-furyl]benzamide], for which the IC50 amounted to 656 nM.
Turning to `Cc1ccc([C@@H](C)NCc2ccc(-c3ccc(Cl)c(C(=O)N[C@@H](CC(=O)NCCO)Cc4ccc(C#N)cc4)c3)o2)cc1` [Example 7, 2-chloro-N-{(2R)-1-(4-cyanophenyl)-4-[(2-hydroxyethyl)amino]-4-oxobutan-2-yl}-5-[5-({[(1R)-1-(4-methylphenyl)ethyl]amino}methyl)-2-furyl]benzamide], the IC50 was found to be 832 nM.
Take `COc1cc(Cl)c(C(=O)N[C@@H](CN)Cc2ccc(C#N)cc2)cc1-c1ccc(CN[C@H](C)c2ccc(C)cc2)o1` [Example 83, N-[(2R)-1-amino-3-(4-cyanophenyl)propan-2-yl]-2-chloro-4-methoxy-5-[5-({[(1R)-1-(4-methylphenyl)ethyl]amino}methyl)-2-furyl]benzamide]: the IC50 turned out to be 233 nM.
For the compound `COc1cc(Cl)c(C(=O)N[C@@H](CO)Cc2ccc(C#N)c(C)c2)cc1-c1ccc(CN[C@H](C)c2ccc(C)cc2)o1` [Example 82], the IC50 was 350 nM.
In the case of `Cc1ccc([C@@H](C)NCc2ccc(-c3ccc(Cl)c(C(=O)N[C@H](Cc4ccc(C#N)cc4)C(=O)NC4CCN(C)CC4)c3)o2)cc1` [Example 30, Nα-{2-chloro-5-[5-({[(1R)-1-(4-methylphenyl)ethyl]amino}methyl)-2-furyl]benzoyl}-4-cyano-N-(1-methylpiperidin-4-yl)-D-phenylalaninamide], the IC50 was 253 nM.
Consider `Cc1ccc([C@@H](C)NCc2ccc(-c3ccc(Cl)c(C(=O)N[C@@H](CCN4CCOCC4)Cc4ccc(C#N)cc4)c3)o2)cc1` [Example 29, 2-chloro-N-[(2R)-1-(4-cyanophenyl)-4-(morpholin-4-yl)butan-2-yl]-5-[5-({[(1R)-1-(4-methylphenyl)ethyl]amino}methyl)-2-furyl]benzamide], for which the IC50 amounted to 675 nM.
`Cc1ccc([C@@H](C)NCc2ccc(-c3ccc(Cl)c(C(=O)N[C@H](Cc4ccc(C#N)cc4)C(N)=O)c3)o2)cc1` [Example 2, Nα-{2-chloro-5-[5-({[(1R)-1-(4-methylphenyl)ethyl]amino}methyl)-2-furyl]benzoyl}-4-cyano-D-phenylalaninamide]: the IC50 amounted to 949 nM.
Consider `Cc1ccc([C@@H](C)NCc2ccc(-c3ccc(Cl)c(C(=O)N[C@@H](CCN4CCN(C)CC4)Cc4ccc(C#N)cc4)c3)o2)cc1` [Example 25, 2-chloro-N-[(2R)-1-(4-cyanophenyl)-4-(4-methylpiperazin-1-yl)butan-2-yl]-5-[5-({[(1R)-1-(4-methylphenyl)ethyl]amino}methyl)-2-furyl]benzamide], for which the IC50 was determined as 352 nM.
For `Cc1ccc([C@@H](C)NCc2ccc(-c3ccc(Cl)c(C(=O)N[C@H](Cc4ccc(C#N)cc4)[C@H](C)O)c3)o2)cc1` [Example 17, 2-chloro-N-[(2R,3S)-1-(4-cyanophenyl)-3-hydroxybutan-2-yl]-5-[5-({[(1R)-1-(4-methylphenyl)ethyl]amino}methyl)-2-furyl]benzamide], the IC50 is 341 nM.
For the compound `Cc1ccc([C@@H](C)NCc2ccc(-c3ccc(Cl)c(C(=O)N[C@@H](CNCC4CCNCC4)Cc4ccc(C#N)cc4)c3)o2)cc1` [Example 69], the IC50 is 112 nM.
Regarding `Cc1ccc(C(C)NCc2ccc(-c3ccc(Cl)c(C(=O)N[C@@H](Cc4ccc(C#N)cc4)c4ncc[nH]4)c3)o2)cc1` (stereo in doubt) [Example 19, 2-chloro-N-[2-(4-cyanophenyl)-1-(1H-imidazol-2-yl)ethyl]-5-[5-({[(1S)-1-(4-methylphenyl)ethyl]amino}methyl)-2-furyl]benzamide], the IC50 came to 640 nM.
With `CC(C)(NCc1ccc(-c2ccc(Cl)c(C(=O)N[C@@H](CN)Cc3ccc(C#N)cc3)c2)o1)c1ccc(C(F)(F)F)cc1` [Example 74, N-[(2R)-1-amino-3-(4-cyanophenyl)propan-2-yl]-2-chloro-5-{5-[({2-[4-(trifluoro-methyl)phenyl]propan-2-yl}amino)methyl]-2-furyl}benzamide] the figure was 671 nM; with `Cc1ccc([C@@H](C)NCc2ccc(-c3ccc(Cl)c(C(=O)N[C@@H](CCN4CCN[C@H](C)C4)Cc4ccc(C#N)cc4)c3)o2)cc1` [Example 27, 2-chloro-N-{(2R)-1-(4-cyanophenyl)-4-[(3R)-3-methylpiperazin-1-yl]butan-2-yl}-5-[5-({[(1R)-1-(4-methylphenyl)ethyl]amino}methyl)-2-furyl]benzamide], 116 nM.
Consider `COc1cc(C#N)ccc1C[C@H](CO)NC(=O)c1cc(-c2ccc(CN[C@H](C)c3ccc(C)cc3)o2)ccc1Cl` [Example 39, 2-chloro-N-[(2R)-1-(4-cyano-2-methoxyphenyl)-3-hydroxypropan-2-yl]-5-[5-({[(1R)-1-(4-methylphenyl)ethyl]amino}methyl)-2-furyl]benzamide], for which the IC50 is 585 nM.
With `Cc1ccc([C@@H](C)NCc2ccc(-c3ccc(Cl)c(C(=O)N[C@@H](CCN4CCN(C)C[C@H]4C)Cc4ccc(C#N)cc4)c3)o2)cc1` [Example 32, 2-chloro-N-{(2R)-1-(4-cyanophenyl)-4-[(2R)-2,4-dimethylpiperazin-1-yl]butan-2-yl}-5-[5-({[(1R)-1-(4-methylphenyl)ethyl]amino}methyl)-2-furyl]benzamide] the figure was 130 nM; with `Cc1ccc([C@@H](C)NCc2ccc(-c3ccc(Cl)c(C(=O)N[C@H](Cc4ccc(C#N)cc4)[C@H](O)CC(C)C)c3)o2)cc1` [Example 45, 2-chloro-N-[(2R,3R)-1-(4-cyanophenyl)-3-hydroxy-5-methylhexan-2-yl]-5-[5-({[(1R)-1-(4-methylphenyl)ethyl]amino}methyl)-2-furyl]benzamide], 1800 nM; with `COC[C@@H](Cc1ccc(C#N)cc1)NC(=O)c1cc(-c2ccc(CN[C@H](C)c3ccc(C)cc3)o2)ccc1Cl` [Example 14, 2-chloro-N-[(2R)-1-(4-cyanophenyl)-3-methoxypropan-2-yl]-5-[5-({[(1R)-1-(4-methylphenyl)ethyl]amino}methyl)-2-furyl]benzamide], 891 nM.
As to `Cc1ccc([C@@H](C)NCc2ccc(-c3ccc(Cl)c(C(=O)N[C@@H](CNCC(=O)N4CCNCC4)Cc4ccc(C#N)cc4)c3)o2)cc1` [Example 55, 2-chloro-N-[(2R)-1-(4-cyanophenyl)-3-{[2-oxo-2-(piperazin-1-yl)ethyl]amino}propan-2-yl]-5-[5-({[(1R)-1-(4-methylphenyl)ethyl]amino}methyl)-2-furyl]benzamide], the IC50 turned out to be 274 nM.
For the compound `C[C@@H](NCc1ccc(-c2ccc(Cl)c(C(=O)N[C@@H](CN)Cc3ccc(C#N)cc3)c2)o1)c1ccc(C(F)(F)F)cc1` [Example 75, N-[(2R)-1-amino-3-(4-cyanophenyl)propan-2-yl]-2-chloro-5-{5-[({(1R)-1-1-[4-(trifluoromethyl)phenyl]ethyl}amino)methyl]-2-furyl}benzamide], the IC50 stood at 567 nM.

Values taken from patent US10654818B2, “Furane derivatives as inhibitors of ATAD2” (BAYER PHARMA AKTIENGESELLSCHAFT, priority 2015, dated 2020).
